Columns and labels:
[1] = molecular target: T1, PregOBP56a (Phormia regina odorant-binding protein 56a) (Phormia regina, UniProt L8B8J6); assay: direct fluorescence titration of the reporter probe, pH […]
T1 construct: recombinant mature PregOBP56a (117 amino acid residues)
T1 sequence (L8B8J6 19-135): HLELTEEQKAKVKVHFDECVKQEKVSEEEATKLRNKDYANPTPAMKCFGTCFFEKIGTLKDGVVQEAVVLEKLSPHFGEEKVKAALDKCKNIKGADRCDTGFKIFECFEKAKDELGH

[2] = molecular target: T1, PregOBP56a (Phormia regina odorant-binding protein 56a); assay: fluorescence competitive binding assay (1-NPN displacement), pH […]

| Compound | Kd [2] [nM] | Kd [1] [nM] |
| --- | --- | --- |
| c1ccc(Nc2cccc3ccccc23)cc1 [1-NPN, N-phenyl-1-naphthylamine] |  | 11400 |
| CCCCC/C=C\C/C=C\CCCCCCCC(=O)O [linoleic acid] | 510 |  |
| CCCCCCCC/C=C\CCCCCCCC(=O)O [oleic acid] | 710 |  |

Continued, in another order:

| Kd [2] [nM] | Compound | Kd [1] [nM] |
| --- | --- | --- |
| 280 | CCCCCCCCCCCCCCCC(=O)O [palmitic acid] |  |
| 350 | CCCCCCCCCCCCCCCCCC(=O)O [stearic acid] |  |

From article PMC3543412, “Fatty Acid Solubilizer from the Oral Disk of the Blowfly” (PLoS ONE, 2013)
